Results as given in ChEMBL document CHEMBL1135272 (Bioorg Med Chem Lett, 2002).

Key:
A549 [1] = test: Inhibition of NFkB (transcription factor) activation in A549 human lung carcinoma cell line at 20 uM; type: functional
A549 [2] = test: Compound was tested for its ability to inhibit tumor necrosis factor alpha (TNF alpha) induced apoptosis in A549 human lung carcinoma cell line; type: functional, cell-based
A549 [3] = test: Inhibition of NFkB (transcription factor) activation in A549 human lung carcinoma cell line; type: functional, cell-based
A549 [4] = test: Compound was tested for its ability to inhibit tumor necrosis factor alpha (TNF alpha) induced apoptosis in A549 human lung carcinoma cell line; NA=Not assayed; type: functional, cell-based
A549 [5] = test: (§1) Compound was tested for its ability to inhibit tumor necrosis factor alpha (TNF alpha) induced apoptosis in A549 human lung carcinoma cell line at 20 uM concentration; type: functional, cell-based
A549 [6] = test: The compound was examined for its ability to block tumor necrosis factor alpha (TNF alpha) induced IL-8 production in A549 human lung carcinoma cell line using an ELISA; type: functional, cell-based
A549 [7] = test: The compound was tested for its ability to inhibit tumor necrosis factor alpha (TNF alpha) induced apoptosis in A549 human lung carcinoma cell line; type: functional, cell-based
A549 [8] = test: as §1; type: functional

Row | Compound | inhibition at 20 µM (A549 [1]) [%] | IC50 (A549 [3]) [µM] | inhibition at 20 µM (A549 [8]) [%] | other results
1 | CCCOC(=O)C1C2C(=O)CC(c3ccc(OCC)cc32)C1C(=O)OCC[Si](C)(C)C (centres undefined) | 43 |  |  | IC50 (A549 [2]): 10 µM
2 | CCCOC(=O)C1C2C(=O)CC(c3ccc(O)cc32)C1C(=O)OCCC[Si](C)(C)C (centres undefined) |  | 40 |  | IC50 (A549 [4]): Not Active
3 | CCCOC(=O)C1C2C(=O)CC(c3ccc(O)cc32)C1C(=O)OCC[Si](C)(C)C (centres undefined) |  | 15 |  | IC50 (A549 [5]): 3 µM; IC50 (A549 [6]): 14 µM
4 | C=CCOC(=O)C1C2C(=O)CC(c3ccc(O)cc32)C1C(=O)OCC[Si](C)(C)C (centres undefined) |  | 21 |  | IC50 (A549 [7]): 5 µM; IC50 (A549 [6]): 21 µM
5 | C[Si](C)(C)CCOC(=O)C1C2CC(=O)C(c3cc(O)ccc32)C1C(=O)OCCN1CCOCC1 (centres undefined) | 18 |  | 43 | 
6 | C=CCNC(=O)C1C2C(=O)CC(c3ccc(O)cc32)C1C(=O)OCC[Si](C)(C)C (centres undefined) | 19 |  | 18 | 
7 | CCCOC(=O)C1C2C(=O)CC(c3ccc(OCc4ccccn4)cc32)C1C(=O)OCC[Si](C)(C)C (centres undefined) | 31 |  | 47 | 
8 | C=CCOC(=O)NC1C2C(=O)CC(c3ccc(O)cc32)C1C(=O)OCC[Si](C)(C)C (centres undefined) | 34 |  |  | IC50 (A549 [2]): 14 µM
9 | CCCOC(=O)C1C2C(=O)CC(c3ccccc32)C1C(=O)OCC[Si](C)(C)C (centres undefined) |  | 45 | 38 | 
10 | C=CCNC(=O)NC1C2C(=O)CC(c3ccc(O)cc32)C1C(=O)OCC[Si](C)(C)C (centres undefined) | 28 |  | 23 | 
11 | CCCOC(=O)C1C2C(=O)CC(c3ccc(OCC(=O)O)cc32)C1C(=O)OCC[Si](C)(C)C (centres undefined) | 3 |  | 13 | 
12 | CCCOC(=O)C1C2C(=O)CC(c3ccc(O)cc32)C1C(=O)OCCC(C)(C)C (centres undefined) |  | 41 |  | IC50 (A549 [4]): Not Active
13 | CCCOC(=O)C1C2C(=O)CC(c3ccc(OCCc4ccccn4)cc32)C1C(=O)OCC[Si](C)(C)C (centres undefined) |  | 27 |  | IC50 (A549 [2]): 4 µM
14 | C[Si](C)(C)CCOC(=O)C1C2CC(=O)C(c3cc(O)ccc32)C1NC(=O)OCc1ccc(-c2ccccc2)cc1 (centres undefined) | 27 |  | 0 | 
15 | C[Si](C)(C)CCOC(=O)C1C2CC(=O)C(c3cc(O)ccc32)C1NC(=O)NCc1cccnc1 (centres undefined) | 30 |  | 11 | 
16 | C[Si](C)(C)CCOC(=O)C1C2CC(=O)C(c3cc(O)ccc32)C1C(=O)OCc1cccc(F)c1 (centres undefined) | 13 |  |  | IC50 (A549 [7]): 12 µM
